Assay results: article PMC4774972, “Activity and Predicted Nephrotoxicity of Synthetic Antibiotics Based on Polymyxin B” (Journal of Medicinal Chemistry, 2016)
Values after ≈ are worked out from the molar mass of the structure shown. Numbered stars: 1 amine (or outer) side, 2 acyl side, 3 side chain; on linkers, the order of the positions; unused ones are H or OH. Bridge positions count the residues as written; N and C are the ends. Square brackets hold non-standard residues; d marks the D form. Peptide text beside a SMILES is read from it. * marks the point of attachment. ξ: configuration not given here. Octanoyl(6-Me) = CCC(C)CCCCC(=O)*; ξGly(octyl) = CCCCCCCCC(N)C(=O)O; NH(2-ClPh) = Clc1ccccc1N*; Octanoyl = CCCCCCCC(=O)*; Dab = NCC[C@H](N)C(=O)O; CO = O=C([*:1])[*:2]

Assays:
[1] = test system: P. aeruginosa PA9704, PmxR; conditions: MIC P. aeruginosa PA9704, PmxR (µg/mL)
[2] = test system: P. aeruginosa FADDI-PA070, PmxR; conditions: MIC P. aeruginosa FADDI-PA070, PmxR (µg/mL)
[3] = test system: E. coli ATCC 25922; conditions: MIC E. coli ATCC 25922 (µg/mL)
[4] = test system: K. pneumoniae CI 138-16357-20362, PmxR; conditions: MIC K. pneumoniae CI 138-16357-20362, PmxR (µg/mL)
[5] = test system: K. pneumoniae ATCC 13883; conditions: MIC K. pneumoniae ATCC 13883 (µg/mL)
[6] = test system: P. aeruginosa ATCC 27853; conditions: MIC P. aeruginosa ATCC 27853 (µg/mL)
[7] = test system: K. pneumoniae ATCC 700603, MDR; conditions: MIC K. pneumoniae ATCC 700603, MDR(µg/mL)
[8] = test system: K. pneumoniae CI Koprana 100650661:1, PmxR; conditions: MIC K. pneumoniae CI Koprana 100650661:1, PmxR (µg/mL)
[9] = test system: A. baumannii CI Ptyela 100734512:2, PmxR; conditions: MIC A. baumannii CI Ptyela 100734512:2, PmxR (µg/mL)
[10] = test system: K. pneumoniae ATTC BAA-2146, NDM-1 pos; conditions: MIC K. pneumoniae ATTC BAA-2146, NDM-1 pos (µg/mL)
[11] = test system: A. baumannii ATCC 19606; conditions: MIC A. baumannii ATCC 19606 (µg/mL)
[12] = test system: S. aureus ATCC 25923, MSSA; conditions: MIC S. aureus ATCC 25923, MSSA (µg/mL)
[13] = test system: HepG2; conditions: CC50 HepG2 (µM)
[14] = test system: S. aureus ATCC 25923, MSSA; test: microbe, parasite or virus in culture; assay type: cell-based, Staphylococcus aureus; conditions: MHB, 5 × 10^5 CFU/mL, read visually after 18 h at 37 °C
Experimental: (§1) Bacteria were either obtained from American Type Culture Collection (ATCC; Manassas, VA, USA) or independent academic clinical isolate collections, as listed in Table S2. Bacteria were cultured in nutrient broth (NB; Bacto Laboratories, catalog no. 234000) or Muller Hinton broth (MHB; Bacto Laboratories, catalog no. 211443) at 37 °C overnight with shaking (∼180 rpm). A sample of each culture was then diluted 50-fold in fresh MHB and incubated at 37 °C for 1.5–3 h with shaking (∼180 rpm). Compound stock solutions were prepared as 0.64 or 2.56 mg/mL in water. The compounds, at twice the final desired concentration, were serially diluted 2-fold across the wells of 96-well plates (Polystyrene, Corning, catalogue No. 3370). Mid log phase bacterial cultures (after 1.5–3 h incubation) were diluted to a final concentration of 5 × 10^5 colony forming units (CFU)/mL, and 50 μL was added to each well giving a final compound concentration range of 32 μg/mL to 0.015 μg/mL (128–0.06 μg/mL for colistin and polymyxin B against the polymyxin resistant clinical isolates). MICs were determined visually after 18 h of incubation at 37 °C, with the MIC defined as the lowest compound concentration at which no bacterial growth was visible.
(§2) Table S2. Bacterial strains used for Minimum Inhibitory Concentration (MIC) […]
(§3) Organism Strain Strain description Strain Source
(§4) Escherichia coli ATCC 25922 FDA strain Seattle 1946 ATCC
(§5) Klebsiella pneumoniae ATCC 13883 Control strain ATCC
(§6) Klebsiella pneumoniae ATCC 700603 Multi-drug resistant ATCC
(§7) Klebsiella pneumoniae BAA-2146 Metallo-beta-lactamase- ATCC
(§8) Acinetobacter baumannii ATCC 19606 Type strain ATCC
(§9) Pseudomonas aeruginosa ATCC 27853 Type strain ATCC
(§10) Pseudomonas aeruginosa FADDI-PA070 Clinical isolate, Nation and Li labs, polymyxin resistant Monash University
(§11) Clinical isolate, Wang Hengzhuang, Pseudomonas aeruginosa PA9704 polymyxin resistant University Hospital of […]
(§12) Ptyela Clinical isolate, Ilias Karaiskos and Acinetobacter baumannii Carbapenem & Helen Giamarellou
(§13) Clinical isolate, Medicine, Hygeia
(§14) Klebsiella pneumoniae Koprana Carbapenem, & General Hospital, […]
(§15) Clinical isolate, (Instituto Dante […]
(§16) polymyxin resistant Cardiologia, São […]

[15] = test system: HepG2 cells; test: Cytotoxicity assay (resazurin assay); assay type: cell-based, human; conditions: 4000 cells/well, 24 h incubation with compound, fluorescence 560/590
Experimental: Cytotoxicity to HEK293 and HepG2 cells was determined using the resazurin assay.[67],[68] […] Compounds were then added into each well. After 24 h incubation, 5 μM resazurin was added per well and incubated at 37 °C for 2 h. Fluorescence intensity was then read using a Polarstar Omega with excitation/emission 560/590. The data were then analyzed using GraphPad Prism 6 software. CC50 values were determined using GraphPad Prism 6 software (Inc. La Jolla, CA).

[16] = test system: A. baumannii CI Ptyela 100734512:2, PmxR; test: microbe, parasite or virus in culture; assay type: cell-based, Acinetobacter baumannii; conditions: carbapenem & polymyxin resistant clinical isolate; MHB, 5 × 10^5 CFU/mL, 18 h at 37 °C
Experimental: as §1, §2, §3, §4, §5, §6, §7, §8, §9, §10, §11, §12, §13, §14, §15, §16

[17] = test system: P. aeruginosa FADDI-PA070, PmxR; assay type: cell-based, Pseudomonas aeruginosa; conditions: polymyxin resistant clinical isolate; MHB, 5 × 10^5 CFU/mL, 18 h at 37 °C
Experimental: as §1, §2, §3, §4, §5, §6, §7, §8, §9, §10, §11, §12, §13, §14, §15, §16

[18] = test system: K. pneumoniae CI 138-16357-20362, PmxR; test: microbe, parasite or virus in culture; assay type: cell-based, Klebsiella pneumoniae; conditions: carbapenem & polymyxin resistant clinical isolate; MHB, 5 × 10^5 CFU/mL, 18 h at 37 °C
[19] = test system: K. pneumoniae CI Koprana 100650661:1, PmxR; test: microbe, parasite or virus in culture; assay type: cell-based, Klebsiella pneumoniae; conditions: carbapenem & polymyxin resistant clinical isolate; MHB, 5 × 10^5 CFU/mL, 18 h at 37 °C
[20] = test system: A. baumannii ATCC 19606; assay type: cell-based, Acinetobacter baumannii; conditions: ATCC 19606, 18 h
Experimental: as §1, §2, §3, §4, §5, §6, §7, §8, §9, §10, §11, §12, §13, §14, §15, §16

Structure (SMILES) | MIC [1] [µg/mL] | MIC [2] [µg/mL] | MIC [3] [µg/mL] | MIC [4] [µg/mL] | MIC [5] [µg/mL] | MIC [6] [µg/mL] | MIC [7] [µg/mL] | MIC [8] [µg/mL] | MIC [9] [µg/mL] | MIC [10] [µg/mL] | MIC [11] [µg/mL] | MIC [12] [µg/mL] | CC50 [13] [µM] | MIC S. aureus ATCC 25923, MSSA [14] [µg/mL] | HepG2 - CC50 [15] [µM] | MIC A. baumannii CI Ptyela 100734512:2, PmxR [16] [µg/mL] | MIC P. aeruginosa FADDI-PA070, PmxR [17] [µg/mL] | MIC K. pneumoniae CI 138-16357-20362, PmxR [18] [µg/mL] | MIC K. pneumoniae CI Koprana 100650661:1, PmxR [19] [µg/mL] | MIC A. baumannii ATCC 19606 [20]
CCC(C)CCCCC(=O)N[C@@H](CCN)C(=O)N[C@H](C(=O)N[C@@H](CCN)C(=O)N[C@H]1CCNC(=O)[C@H]([C@@H](C)O)NC(=O)[C@H](CCN)NC(=O)[C@H](CCN)NC(=O)[C@H](CC(C)C)NC(=O)[C@@H](Cc2ccccc2)NC(=O)[C@H](CCN)NC1=O)[C@@H](C)O (some centres unmarked) | 128 (≈ 106 µM) | 32 (≈ 26.6 µM) | 1 (≈ 0.831 µM) | 64 (≈ 53.2 µM) | 1 (≈ 0.831 µM) | 0.5 (≈ 0.415 µM) | 0.5 (≈ 0.415 µM) | 64 (≈ 53.2 µM) | 64 (≈ 53.2 µM) | 0.25 (≈ 0.208 µM) | 0.25 (≈ 0.208 µM) | > 64 | > 300 | – | – | – | – | – | – | –
CCC(C)CCCCC(=O)N[C@@H](CCN)C(=O)N[C@H](C(=O)N[C@@H](CCN)C(=O)N[C@H]1CCNC(=O)[C@H]([C@@H](C)O)NC(=O)[C@H](CCN)NC(=O)[C@H](CCN)NC(=O)[C@H](CC(C)C)NC(=O)[C@@H](CC(C)C)NC(=O)[C@H](CCN)NC1=O)[C@@H](C)O (stereo partly drawn) ({Octanoyl(6-Me)}-[Dab]T[Dab][Dab][Dab][dL]L[Dab][Dab]T; lactam 4-C) | 128 (≈ 109 µM) | > 32 | 0.25 (≈ 0.214 µM) | 64 (≈ 54.7 µM) | 0.25 (≈ 0.214 µM) | 0.5 (≈ 0.428 µM) | 0.25 (≈ 0.214 µM) | > 128 | > 64 | 0.25 (≈ 0.214 µM) | 0.25 (≈ 0.214 µM) | > 128 | > 300 | – | – | – | – | – | – | –
CCCCCCCC(=O)N[C@@H](CCN)C(=O)N[C@H](C(=O)N[C@@H](CCN)C(=O)N[C@H]1CCNC(=O)[C@H]([C@@H](C)O)NC(=O)[C@H](CCN)NC(=O)[C@H](CCN)NC(=O)[C@H](CC(C)C)NC(=O)[C@@H](Cc2ccccc2)NC(=O)[C@H](CCN)NC1=O)[C@@H](C)O [Compound 11, polymyxin B3] (Octanoyl-[Dab]T[Dab][Dab][Dab][dF]L[Dab][Dab]T; lactam 4-C) | > 128 | > 32 | – | > 128 | – | – | – | > 128 | > 64 | – | – | > 128 | > 300 | >128 | >300 | >64 | >32 | >128 | >128 | –
CC(C)C[C@@H]1NC(=O)[C@@H](Cc2ccccc2)NC(=O)[C@H](CCN)NC(=O)[C@@H](NC(=O)[C@@H](CO)NC(=O)[C@@H](NC(=O)[C@H](CCN)NC(=O)Nc2ccccc2Cl)[C@@H](C)O)CCNC(=O)[C@H]([C@@H](C)O)NC(=O)[C@H](CCN)NC(=O)[C@H](CCN)NC1=O [Compound 17] ({NH(2-ClPh)-CO}-[Dab]T[dS][Dab][Dab][dF]L[Dab][Dab]T; lactam 4-C) | > 32 | > 32 | – | > 32 | – | – | – | > 32 | > 32 | > 32 | > 32 | > 32 | > 300 | – | – | – | – | >32 | >32 | –
CCCCCCCCC1NC(=O)[C@@H](Cc2ccccc2)NC(=O)[C@H](CCN)NC(=O)[C@@H](NC(=O)[C@H](CCN)NC(=O)[C@@H](NC(=O)[C@H](CCN)NC(=O)CCCCCCC)[C@@H](C)O)CCNC(=O)[C@H]([C@@H](C)O)NC(=O)[C@H](CCN)NC(=O)[C@H](CCN)NC1=O (some centres unmarked) [Compound 28] (Octanoyl-[Dab]T[Dab][Dab][Dab][dF][ξGly(octyl)][Dab][Dab]T; lactam 4-C) | – | – | – | – | – | – | – | – | – | – | – | – | – | – | – | – | – | – | – | 1(1) μg/mL
CCCCCCCC(=O)N[C@@H](CCN)C(=O)N[C@H](C(=O)N[C@@H](CCN)C(=O)N[C@H]1CCNC(=O)[C@H]([C@@H](C)O)NC(=O)[C@H](CCN)NC(=O)[C@H](CCN)NC(=O)[C@H](CC(C)C)NC(=O)[C@@H](Cc2ccccc2)NC(=O)[C@H](CCNC(=O)[C@@H](N)CCC(=O)O)NC1=O)[C@@H](C)O [Compound 32] (Octanoyl-[Dab]T[Dab][Dab][Dab](Glu)[dF]L[Dab][Dab]T; lactam 4-C) | > 32 | > 32 | > 32 | > 32 | > 32 | > 32 | > 32 | > 32 | > 32 | – | > 32 | > 32 | > 300 | – | – | – | – | >32 | >32 | –
